Assay results taken from patent US8648101B2, “Nematicidal agent composition and method of using the same” (Nihon Nohyaku Co., Ltd., priority 2007, dated 2014).

How the values were obtained:
[1] = tested on: southern root-knot nematode (Meloidogyne incognita); test: Nematocidal test on the southern root-knot nematode, pot-grown melon seedlings; assay type: in vivo; set-up: key: A: no root knots.; B: root knots are present but their number is definitely smaller than that for untreated plot.; C: root knots are present in an equivalent number to or a larger number than that for untreated plot; settings: 30 ppm emulsion dilution, 1 ml injected at foot of melon seedlings; 8 days after inoculation
Description: Nematocidal Test on the Southern Root-Knot Nematode (Meloidogyne incognita)
An emulsion comprising each compound listed in Table 1 as an active ingredient was prepared as directed in Preparation Example 1, and diluted to obtain active ingredient concentrations of 300 ppm and 30 ppm. Each of these dilutions (1 ml) was applied to the foots of pot-grown melon seedlings by injection; 1 day after application of the dilution, an aqueous suspension of southern root-knot nematodes (about 500 nematodes/ml) was inoculated (soil injection), to a treated plot and an untreated plot and the pots were placed in a 25° C. greenhouse. Eight days after the inoculation, the roots were washed with water and examined for the number of root knots, and the effects were determined according to the following rating criteria.
• A: no root knots. • B: root knots are present but their number is definitely smaller than that for untreated plot. • C: root knots are present in an equivalent number to or a larger number than that for untreated plot.

[2] = tested on: soybean cyst nematode (Heterodera grycines); test: Nematocidal test on the soybean cyst nematode, treated soil with soybean; assay type: in vivo; set-up: key: A: no cysts.; B: cysts are present but their number is definitely smaller than that for untreated plot.; C: cysts are present in an equivalent number to or a larger number than that for untreated plot; settings: 7.5 mg wettable powder (1.5 mg active ingredient per kg soil); 40 days after seeding
Description: Nematocidal Test on the Soybean Cyst Nematode (Heterodera grycines)
A wettable powder comprising each compound listed in Table 1 as an active ingredient was prepared as directed in Preparation Example 4, and 75 mg and 7.5 mg were weighed out so that the active ingredient content would be 15 mg and 1.5 mg per kg soil; these agents were mixed in soil (1000 g) contaminated with soybean cyst nematodes in a plastic bag. The treated soil was filled in pots, soybean seeds were sown, and the pots were placed in a glass greenhouse. Forty days after the seeding, the soil on the roots was put down, the number of cysts was examined, and the effect was determined according to the rating criteria shown below.
• A: no cysts. • B: cysts are present but their number is definitely smaller than that for untreated plot. • C: cysts are present in an equivalent number to or a larger number than that for untreated plot.

## O=C(NCCc1ncc(C(F)(F)F)cc1Cl)c1ccccc1C(F)(F)F [Compound 7, N-[2-(3-chloro-5-trifluoromethylpyridin-2-yl)ethyl]-2-trifluoromethylbenzamide]
[1]
  rating (number of root knots): A
[2]
  rating (number of cysts): A
